From Sander's compilation of Henry's law constants (doi:10.1021/es00169a013)

Experiment: Henry solubility constant Hcp at 298.15 K (mol/(m3 Pa))
Conditions: reference: Dunnivant et al. (1988)

Row | Compound | Henry solubility constant Hcp
1 | Clc1cccc(-c2cccc(Cl)c2Cl)c1Cl [2,2',3,3'-tetrachlorobiphenyl] | 0.049
2 | Clc1cc(Cl)c(-c2cc(Cl)c(Cl)cc2Cl)cc1Cl [2,2',4,4',5,5'-hexachlorobiphenyl] | 0.075
3 | Clc1cc(Cl)c(-c2c(Cl)cc(Cl)cc2Cl)c(Cl)c1 [2,2',4,4',6,6'-hexachlorobiphenyl] | 0.013
4 | Clc1ccc(Cl)c(-c2cc(Cl)c(Cl)cc2Cl)c1 [2,2',4,5,5'-pentachlorobiphenyl] | 0.039
5 | Clc1ccc(Cl)c(-c2cc(Cl)ccc2Cl)c1 [2,2',5,5'-tetrachlorobiphenyl] | 0.029
6 | Clc1cccc(Cl)c1-c1c(Cl)cccc1Cl [2,2',6,6'-tetrachlorobiphenyl] | 0.018
7 | Clc1ccccc1-c1ccccc1Cl [2,2'-dichlorobiphenyl] | 0.029
8 | Clc1cccc(-c2cc(Cl)ccc2Cl)c1 [2,3',5-trichlorobiphenyl] | 0.03
9 | Clc1cc(Cl)c(-c2ccccc2)c(Cl)c1 [2,4,6-trichlorobiphenyl] | 0.015
10 | Clc1ccc(Cl)c(-c2ccccc2)c1 [2,5-dichlorobiphenyl] | 0.025
11 | Clc1ccc(-c2ccc(Cl)c(Cl)c2)cc1Cl [3,3',4,4'-tetrachlorobiphenyl] | 0.1
12 | Clc1cccc(-c2cccc(Cl)c2)c1 [3,3'-dichlorobiphenyl] | 0.042
13 | Clc1ccc(-c2ccccc2)cc1Cl [3,4-dichlorobiphenyl] | 0.048
14 | Clc1ccc(-c2ccc(Cl)cc2)cc1 [4,4'-dichlorobiphenyl] | 0.05
